In patent US8101368B2, “Quantitation of cellular DNA and cell numbers using element labeling” (DVS Sciences Inc., priority 2006, dated 2012):

Columns and labels:
K562 cells = assay: Cell cycle synchronization checked by propidium iodide flow cytometry; assay type: cell-based
Method: Cells were synchronized in G1/S and G2/M phases of the cell cycle using a DNA synthesis inhibitor, thymidine, followed by a mitotic inhibitor, nocodazole. The DNA content of the G0/G1 phase is centered at 2n. Treatment with double thymidine results in a G1/S-phase arrested cell population with approximately […]. Nocodazole addition following a single thymidine treatment arrests cells in the G2/M stage with 4n DNA content. K562 cells were treated with 2 mM thymidine added to culture medium for 17 hours. The cells were then washed and incubated in fresh media for 9 hours. At the end of this rest period the culture was split into two flasks—one received the second dose of 2 mM thymidine (double thymidine block) to arrest cells at G1/S; the other—0.2 ug/ml nocodazole (single thymidine-nocodazole block) to arrest cells at the M phase. The inhibitors were left in culture media for 17 hours. […] After several washes the cells were digested in concentrated HCl and analyzed by ICP-MS. […] Treatment of stained cells with enzymes shifts the detected Rh values due to enhanced binding of metallointercalator to naked DNA. […] In the case of RNAse A treatment—degradation of small RNA molecules bound to DNA such as siRNA that may block interaction of intercalator and DNA may lead to higher detected Rh values.

DNA = details: rhodium/base pair ratios of 2:1; cited from earlier work
MBA-1 cells [1] = system: MBA-1 cells
Method: Reactivity of the Rh(III) metallointercalator with fixed and fixed/permeabilized versus live cells was also examined. Equal amounts of MBA-1 cells (1×10^6) were either fixed/permeabilized as above, fixed in 3.7% formaldehyde alone or left untreated (live cells). After two washes in PBS the cells were incubated with 200 uM [Rh(phi)2bpy]Cl3 for 30 minutes; washed three more times and dissolved in HCl.

MBA-1 cells [2] = assay: Binding of increasing concentrations of Rh(III) intercalator to fixed/permeabilized cells, ICP-MS; assay type: cell-based; details: 2.5 nanoM to 250 microM, 45 minutes, 1×10^6 fixed/permeabilized cells; linear response
Method: Binding of an intercalator to DNA is governed by the law of mass action. Assuming that a mammalian cell in G1 phase has 3.3×10^9 DNA base pairs of which only 10-70% are free from protein interaction (nucleosomes) and available for binding with the intercalator (one molecule per two base pairs at saturation), the number of molecules of dye needed is approximately 1-10×10^8. Thus for [Rh(phi)2bpy]Cl3, with 671 MW, 1 ml of 200 uM solution should be 100-fold excess of intercalator over DNA binding sites for 1×10^6 cells. The binding of various amounts of the Rh(III) intercalator with cultured cells was assessed. MBA-1 cells were fixed in 3.7% formaldehyde/PBS for 15 minutes, followed by permeabilization with 0.3% TRITON™ X-100/PBS; washed once with PBS and incubated for 45 minutes with 1 ml of increasing concentrations of [Rh(phi)2bpy]Cl3 from 2.5 nanoM to 250 microM. Each sample contained 1×10^6 cells, run in triplicates. Following washing, the cell pellets were treated with concentrated HCl, mixed with an equal volume of 1 ppb Ir internal standard, and analyzed in solution by ICP-MS.

KG-1a cells = assay: Viability with trypan blue of cells cultured in Pd-supplemented media; assay type: cell-based; details: 500 ppb Pd in growth media, 72 hours
Method: (§1) The experiment was set up to investigate if metals passively accumulated by cells could be indicative of cell number and cell type. For this purpose two different leukemia cell lines were cultured for 72 hours in growth media supplemented with very low amounts of rare earth metals: 100 ppb Rh was added to MBA-1 cells, and 500 ppb Pd was added to KG-1a cells which express the cell surface marker. During the three days of cell culture, aliquots of cells were tested for viability with trypan blue. […] Cells were collected by centrifugation (1200 rpm, 10 minutes), washed once in PBS/10% FBS and counted in a hemocytometer. Serial dilutions were prepared to give 1×10^6, 0.5×10^6, 1×10^5, 1×10^4, 1×10^3, and 1×10^2 KG-1a cells in a population of MBA-1 cells (1×10^6) per tube in triplicates (Table 1). In this example Pd will reflect the number of KG-1a cells and the presence of surface marker CD34 will specify the cell type, while MBA-1 cells are marked by Rh. Immunolabeling was carried out by adding anti-CD34 antibodies to tubes containing decreasing amounts of live KG-1a cells and incubating for 45 minutes on ice. Negative control tubes were reacted with the IgG1 isotype control immunoglobulins. After three low speed centrifugation washes with PBS/10% FBS all samples were incubated with biotinylated anti-mouse antibodies. […]

MBA-1 cells [3] = assay: Viability with trypan blue of cells cultured in Rh-supplemented media; assay type: cell-based; details: 100 ppb Rh in growth media, 72 hours
Method: as §1

SMILES: COC(=O)Nc1nc2ccc(C(=O)c3cccs3)cc2[nH]1 [nocodazole]
- Cell cycle phase after block (K562 cells; single thymidine-nocodazole block, 0.2 ug/ml nocodazole, 17 hours): practically all cells were in M phase

SMILES: [Cl-].[Cl-].[Cl-].[NH-]c1c([NH-])c2ccccc2c2ccccc12.[NH-]c1c([NH-])c2ccccc2c2ccccc12.[Rh].c1ccc(-c2ccccn2)nc1 [[Rh(phi)2bpy]Cl3]
- Sequence dependence of binding to DNA (DNA): sequence neutral and random
- Membrane permeability in live cells (MBA-1 cells [1]): membrane impermeable
- Saturation of DNA binding (normalized Rh signal response) (MBA-1 cells [2]): without reaching a saturation limit

SMILES: Cc1cn([C@H]2C[C@H](O)[C@@H](CO)O2)c(=O)[nH]c1=O [thymidine]
- Cell cycle phase after block (K562 cells; double thymidine block, 2 mM, 17 hours each): majority of cells were in G1/S

SMILES: [Pd] [Pd, palladium]
- Cell death due to presence of metal in media (KG-1a cells): No excessive cell death

SMILES: [Rh] [Rh, rhodium]
- Cell death due to presence of metal in media (MBA-1 cells [3]): No excessive cell death
